# Measured values from US20210052529A1, “PHARMACEUTICAL COMPOSITIONS COMPRISING DICARBOXYLIC ACIDS AND THEIR THERAPEUTIC APPLICATIONS” (Cura Therapeutics, LLC, priority 2018, published 2021).
# Where “and” joins values, the source holds several entries; their conditions need not be identical. Identical values can stand only once. Like-named read-outs stand apart in the source and are kept apart here.
# Key:
# [1] = assay type: in vitro ADME, human; conditions: for Mean Height / % Remaining: human, 1 μM; for % Remaining: plasma
# Experimental: Compound B1 was spiked directly into an individual lot of fresh human plasma, with sodium heparin as the anticoagulant, such that the final assay concentration of the compound was 1.00 μM. After incubation at room temperature for 0, 0.5, 1, 2, and 4 hours, samples were removed and aliquoted for analysis. Valacyclovir was used as a positive control. The plasma samples containing a test compound were processed by protein precipitation.
# A primary 0.500 mM stock solution of compound B1 was prepared in either acetonitrile or acetonitrile:water (1:1, v/v). A 0.200 mM working stock was made from the primary stock in acetonitrile:water (1:1, v/v), which was used in the human plasma stability study. The primary and working stock solutions were stored at −20° C. when not in use. When it was used in the assay, the working stock was kept at room temperature for as short a time as possible.
# The human plasma stability study was initiated by adding 5.00 μL of compound B1 stock solution to 0.995 mL of human plasma (sodium heparin) in a 1.7-mL snap tube. Time zero points were generated by immediately removing duplicate 50.0 μL aliquots of plasma after initiating each incubation and quenching in 150 μL of methanol. The plasma incubation tubes were capped and remained at room temperature between time points.
# After 0.5, 1, 2, and 4 hours of incubation, duplicate 50.0 μL aliquots of plasma were removed and placed into the extraction tubes containing 150 μL of methanol. Each time point was immediately extracted by vortex mixing, centrifuged and the supernate removed to HPLC vial for analysis. After extraction of all samples, the extracts were analyzed by LC/MS/MS.
# LC/MS/MS analysis of the incubation solutions was conducted by initial separation of the test compound peak using chromatography prior to detection by the mass spectrometer. The LC/MS system was comprised of a HPLC coupled with a TQS-Micro or Quattro Premier. The mobile phase was nebulized using heated nitrogen in a Z-spray source/interface set to electrospray in either positive ionization mode or negative ionization mode. The ionized compounds were detected using MS/MS. The data was acquired using MassLynx.
# [2] = Compound concentration in the CSF of rats; assay type: in vivo
# Experimental: Compound B1 in the CSF of the rats was also analyzed. The results are shown in Table 4 below wherein BQL stands for below the quantifiable limit of 2.0 ng/mL.
# [3] = Pharmacokinetic study in rats; assay type: in vivo
# Experimental: A pharmacokinetic study on compound B1 was carried out in rats.
smiles,measurement,setting,value
"CC(C)[C@H](N)C(=O)OCCOCn1cnc2c(=O)[nH]c(N)nc21 [Valacyclovir, reference compound]",Mean Height,[1]; 0 h,"21,400"
same,Mean Height,[1]; 0.5 h,"20,700"
same,Mean Height,[1]; 1 h,"20,500"
same,Mean Height,[1]; 2 h,"19,800"
same,Mean Height,[1]; 4 h,"17,700"
same,% Remaining,[1]; 0 h,100%
same,% Remaining,[1]; 0.5 h,96.7%
same,% Remaining,[1]; 1 h,95.8%
same,% Remaining,[1]; 2 h,92.5%
same,% Remaining,[1]; 4 h,82.7%
"O=C(O)c1ccc(NC(=O)[C@@H]2CCC[C@H](C(=O)Nc3ccc(C(=O)O)cc3)C2)cc1 [B1, 4,4′-(((1R,3S)-cyclohexane-1,3-dicarbonyl)bis(azanediyl))dibenzoic acid]",Metabolism in fresh human plasma,[1],not significantly metabolized
same,Mean Height,[1]; 0 h,"9,610"
same,Mean Height,[1]; 0.5 h,"9,430"
same,Mean Height,[1]; 1 h,"9,330"
same,Mean Height,[1]; 2 h,"9,610"
same,Mean Height,[1]; 4 h,"9,000"
same,% Remaining,[1]; 0 h,100%
same,% Remaining,[1]; 0.5 h,98.1%
same,% Remaining,[1]; 1 h,97.1%
same,% Remaining,[1]; 2 h,100%
same,% Remaining,[1]; 4 h,93.7%
same,CSF Concentration,"[2]; IV, 0.00 h, individual animals",BQL (below the quantifiable limit of 2.0 ng/mL)
same,CSF Concentration,"[2]; IV, 0.5 h, individual animals",26 ng/mL and 17 ng/mL and 36 ng/mL
same,CSF Concentration,"[2]; IV, 1.0 h, individual animals",51 ng/mL and 391 ng/mL and 17 ng/mL
same,CSF Concentration,"[2]; IV, 2.0 h, individual animals",33 ng/mL and 27 ng/mL
same,CSF Concentration,"[2]; IV, 4.0 h, individual animals",10 ng/mL and 21 ng/mL and 4.5 ng/mL
same,CSF Concentration,"[2]; IV, 8.0 h, individual animals",1.8 ng/mL
same,CSF Concentration,"[2]; IV, 12 h, individual animals",BQL (below the quantifiable limit of 2.0 ng/mL)
same,CSF Concentration,"[2]; PO, 0.00 h, individual animals",BQL (below the quantifiable limit of 2.0 ng/mL)
same,CSF Concentration,"[2]; PO, 0.5 h, individual animals",BQL (below the quantifiable limit of 2.0 ng/mL)
same,CSF Concentration,"[2]; PO, 1.0 h, individual animals",BQL (below the quantifiable limit of 2.0 ng/mL)
same,CSF Concentration,"[2]; PO, 2.0 h, individual animals",BQL (below the quantifiable limit of 2.0 ng/mL)
same,CSF Concentration,"[2]; PO, 4.0 h, individual animals",BQL (below the quantifiable limit of 2.0 ng/mL)
same,CSF Concentration,"[2]; PO, 8.0 h, individual animals",BQL (below the quantifiable limit of 2.0 ng/mL)
same,CSF Concentration,"[2]; PO, 12 h, individual animals",BQL (below the quantifiable limit of 2.0 ng/mL)
same,concentration at 0.5 h,"[2]; rat, CSF, iv, 0.5 h, mean",27 ng/mL
same,concentration at 1 h,"[2]; rat, CSF, iv, 1.0 h, mean",153 ng/mL
same,concentration at 2 h,"[2]; rat, CSF, iv, 2.0 h, individual animals, read-out: CSF Concentration",17 ng/mL
same,concentration at 2 h,"[2]; rat, CSF, iv, 2.0 h, mean, read-out: CSF Concentration, Mean",26 ng/mL
same,concentration at 4 h,"[2]; rat, CSF, iv, 4.0 h, mean",12 ng/mL
same,concentration at 8 h,"[2]; rat, CSF, iv, 8.0 h, individual animals, read-out: CSF Concentration",1.2 ng/mL
same,concentration at 8 h,"[2]; rat, CSF, iv, 8.0 h, mean, read-out: CSF Concentration, Mean",1.5 ng/mL
same,concentration at 2 h,"[2]; rat, CSF, po, 10 mg/kg, PO, 2.0 h, individual animals, read-out: CSF Concentration",4.6 ng/mL
same,concentration at 2 h,"[2]; rat, CSF, po, 10 mg/kg, PO, 2.0 h, mean (N=1), read-out: CSF Concentration, Mean",4.6 ng/mL
same,AUCINF/Dose,[3]; IV,2950
same,CL or CL/F,[3]; IV,4.8 mL/min/kg
same,HL,[3]; IV,1.9 h
same,AUCINF/Dose,[3]; PO,43
same,HL,[3]; PO,14 h
same,AUC(0-inf),"[3]; rat, in vivo, 1 mg/kg, IV",2950 ng·h/mL
same,AUC(0-t),"[3]; rat, in vivo, 1 mg/kg, IV",2950 ng·h/mL
same,Cmax,"[3]; rat, in vivo, 1 mg/kg, IV",3980 ng/mL
same,AUC(0-inf),"[3]; rat, in vivo, 10 mg/kg, PO",431 ng·h/mL
same,AUC(0-t),"[3]; rat, in vivo, 10 mg/kg, PO",267 ng·h/mL
same,Cmax,"[3]; rat, in vivo, 10 mg/kg, PO",29 ng/mL
same,Tmax,"[3]; rat, in vivo, 10 mg/kg, PO",2 h
same,bioavailability,"[3]; rat, in vivo, 10 mg/kg, PO",1.25%
same,CL/F,"[3]; rat, in vivo, 10 mg/kg, PO, read-out: CL or CL/F",387 mL/min/kg
